Results: article PMC5584945, “Evaluation of robenidine analog NCL195 as a novel broad-spectrum antibacterial agent” (PLoS ONE, 2017)
≈ marks a conversion by molar mass, not a printed value.

Tests used:
S. pneumoniae D39 = experiment: Membrane potential, DiOC2(3) fluorescence; assay type: cell-based, Streptococcus pneumoniae; details: 16 μg/ml, pre-incubated 5 min; versus untreated and ampicillin
Method: To further examine the mechanism underlying the perturbation of the cell membrane of S. pneumoniae or S. aureus by the NCL compounds, the membrane potential of the cells was measured by fluorescence spectrometry using (DiOC2(3), essentially as described previously. Briefly, […] cells from an overnight HBA plate were grown in Todd-Hewitt broth supplemented with 1% yeast extract (THY) at 37°C, 5% CO2 until A600 nm = 0.5. […] The cuvette was then placed in a LS 55 Fluorescence Spectrometer (PerkinElmer) set at Ex. 488 nm/Em. 620 nm, with excitation and emission slit widths at 5 nm and 7 nm, respectively). […] All assays were performed at least twice.

S. aureus Xen29 = experiment: Minimum bactericidal concentration (MBC); assay type: cell-based; details: Staphylococcus aureus, 99.9% colony count reduction
Method: The tray was covered with Breathe-Easy sealing membrane (Z380059, Sigma-Aldrich) and incubated for 16 h overnight at 35°C in an EnSpire Multimode Plate Reader 2300 (PerkinElmer), with data collected every 20 min and 2 sec agitation at 60 rpm between data (A600 nm) acquisitions. The experiment was repeated using the luminescent D39LUX strain on a Cytation 5 Cell Imaging Multi-Mode Reader (BioTek) using IsoplateTM-96 F tray PerkinElmer, 6005020). Kill kinetic assays on S. aureus Xen29 was carried out essentially as described for MIC determination on Cytation 5 Cell Imaging Multi-Mode Reader.
In order to determine the MBC of each compound against S. pneumoniae D39 or S. aureus Xen29, 10 μl aliquots from each duplicate well from the MIC assays (starting from the MIC for each compound) was inoculated onto a HBA plate and incubated at 37°C (+ 5% CO2 for S. pneumoniae D39). Plates were examined at 24 and 48 h and the MBC was recorded as the lowest concentration of each test compound at which a 99.9% colony count reduction was observed on the plate.

S. pneumoniae = experiment: MIC, broth micro-dilution (CLSI); assay type: cell-based, Streptococcus pneumoniae; details: for MIC / MIC50 / MIC90: Streptococcus pneumoniae

With C/C(=N\NC(=N)N/N=C(\C)c1ccc(C(C)(C)C)cc1)c1ccc(C(C)(C)C)cc1 [NCL219, (E)-N'-((E)-1-(4-(tert-butyl)phenyl)ethylidene)-2-(1-(4-(tert-butyl)phenyl)ethylidene)hydrazine-1-carboximidhydrazide] the “Effect on generated membrane potential” value (S. pneumoniae D39) was “large reduction in the magnitude of the generated membrane potential”, the MBC (S. aureus Xen29) was 16 µg/mL (≈ 39.4 µM) and the MIC range (S. pneumoniae; 21 isolates) was 1 to 8 µg/mL. It also gave an MIC range (S. pneumoniae; S1 Table isolates, 5% FBS + 3% washed RBC) of 1 to 8 µg/mL, an MIC range (S. pneumoniae; S1 Table isolates, 10% FBS + 3% washed RBC) of 1 to 8 µg/mL and an MIC (S. pneumoniae; A66.1 (serotype 3), 5% FBS) of 4 µg/mL (≈ 9.86 µM). It also gave an MIC (S. pneumoniae; A66.1 (serotype 3), 10% FBS) of 4 µg/mL (≈ 9.86 µM), an MIC (S. pneumoniae; ATCC6303, ATCC 6303 (serotype 3), 5% FBS + 3% washed RBC) of 1 µg/mL and an MIC (S. pneumoniae; ATCC6303, ATCC 6303 (serotype 3), 10% FBS + 3% washed RBC) of 1 µg/mL. For the same compound, the MIC (S. pneumoniae; D39/D39LUX (serotype 2), 5% FBS) was 4 µg/mL (≈ 9.86 µM), the MIC (S. pneumoniae; D39/D39LUX (serotype 2), 10% FBS) was 4 µg/mL (≈ 9.86 µM) and the MIC (S. pneumoniae; L82016 (serotype 6B), 5% FBS) was 2 µg/mL (≈ 4.93 µM). The MIC (S. pneumoniae; L82016 (serotype 6B), 10% FBS) was 2 µg/mL (≈ 4.93 µM), the MIC (S. pneumoniae; P9 (serotype 6A), 5% FBS) was 4 µg/mL (≈ 9.86 µM) and the MIC (S. pneumoniae; P9 (serotype 6A), 10% FBS) was 4 µg/mL (≈ 9.86 µM). The MIC (S. pneumoniae; P21 (serotype 3), 5% FBS) was 4 µg/mL (≈ 9.86 µM), the MIC (S. pneumoniae; P21 (serotype 3), 10% FBS) was 4 µg/mL (≈ 9.86 µM) and the MIC50 (S. pneumoniae; S1 Table isolates, 5% FBS) was 4 µg/mL (≈ 9.86 µM). For the same compound, the MIC90 (S. pneumoniae; S1 Table isolates, 5% FBS) was 4 µg/mL (≈ 9.86 µM), the MIC50 (S. pneumoniae; S1 Table isolates, 10% FBS) was 4 µg/mL (≈ 9.86 µM) and the MIC90 (S. pneumoniae; S1 Table isolates, 10% FBS) was 8 µg/mL (≈ 19.7 µM). It also gave an MIC (S. pneumoniae; TIGR4 (serotype 4), 5% FBS) of 2 µg/mL (≈ 4.93 µM), an MIC (S. pneumoniae; TIGR4 (serotype 4), 10% FBS) of 2 µg/mL (≈ 4.93 µM) and an MIC (S. pneumoniae; WCH16 (serotype 6A), 5% FBS) of 2 µg/mL (≈ 4.93 µM). For the same compound, the MIC (S. pneumoniae; WCH16 (serotype 6A), 10% FBS) was 2 µg/mL (≈ 4.93 µM), the MIC (S. pneumoniae; WCH43 (serotype 4), 5% FBS) was 2 µg/mL (≈ 4.93 µM) and the MIC (S. pneumoniae; WCH43 (serotype 4), 10% FBS) was 2 µg/mL (≈ 4.93 µM). The MIC (S. pneumoniae; WCH46 (serotype 4), 5% FBS) was 4 µg/mL (≈ 9.86 µM), the MIC (S. pneumoniae; WCH46 (serotype 4), 10% FBS) was 4 µg/mL (≈ 9.86 µM) and the MIC (S. pneumoniae; WCH57 (serotype 8), 5% FBS) was 4 µg/mL (≈ 9.86 µM). It also gave an MIC (S. pneumoniae; WCH57 (serotype 8), 10% FBS) of 4 µg/mL (≈ 9.86 µM), an MIC (S. pneumoniae; WCH86 (serotype 4), 5% FBS) of 4 µg/mL (≈ 9.86 µM) and an MIC (S. pneumoniae; WCH86 (serotype 4), 10% FBS) of 4 µg/mL (≈ 9.86 µM). For the same compound, the MIC (S. pneumoniae; WCH89 (serotype 7), 5% FBS) was 8 µg/mL (≈ 19.7 µM), the MIC (S. pneumoniae; WCH89 (serotype 7), 10% FBS) was 4 µg/mL (≈ 9.86 µM) and the MIC (S. pneumoniae; WCH92 (serotype 4), 5% FBS) was 4 µg/mL (≈ 9.86 µM). It also gave an MIC (S. pneumoniae; WCH92 (serotype 4), 10% FBS) of 4 µg/mL (≈ 9.86 µM), an MIC (S. pneumoniae; WCH137 (serotype 6A), 5% FBS) of 4 µg/mL (≈ 9.86 µM) and an MIC (S. pneumoniae; WCH137 (serotype 6A), 10% FBS) of 4 µg/mL (≈ 9.86 µM). The MIC (S. pneumoniae; WCH158 (serotype 19F), 5% FBS) was 8 µg/mL (≈ 19.7 µM), the MIC (S. pneumoniae; WCH158 (serotype 19F), 10% FBS) was 8 µg/mL (≈ 19.7 µM) and the MIC (S. pneumoniae; WCH184 (serotype 19F), 5% FBS) was 2 µg/mL (≈ 4.93 µM). The MIC (S. pneumoniae; WCH184 (serotype 19F), 10% FBS) was 2 µg/mL (≈ 4.93 µM), the MIC (S. pneumoniae; WCH211 (serotype 11), 5% FBS) was 4 µg/mL (≈ 9.86 µM) and the MIC (S. pneumoniae; WCH211 (serotype 11), 10% FBS) was 4 µg/mL (≈ 9.86 µM). For the same compound, the MIC (S. pneumoniae; WU2 (serotype 3), 5% FBS) was 4 µg/mL (≈ 9.86 µM) and the MIC (S. pneumoniae; WU2 (serotype 3), 10% FBS) was 4 µg/mL (≈ 9.86 µM).
